Results taken from ChEMBL document CHEMBL3525951, “Reevaluation of the microsomal metabolism of montelukast: major contribution by CYP2C8 at clinically relevant concentrations” (Drug Metab Dispos, 2011).

Tests used:
[1] = system: Liver microsome; test: Drug metabolism in human liver microsomes at 1 to 10 uM preincubated for 3 mins followed by beta-NADPH addition by LC-MS analysis in presence of albumin; type: ADME
[2] = system: Liver microsome; test: Drug metabolism in human liver microsomes assessed as 2-(1-(((S)-1-(3-(2-(7-chloroquinolin-2-yl)vinyl)phenyl)-3-(2-(2-hydroxypropan-2-yl)phenyl)propylsulfinyl)methyl)cyclopropyl)acetic acid formation at 0.02 to 0.4 uM preincubated for 3 mins followed by beta-NADPH addition by LC-MS analysis; type: ADME
[3] = system: Liver microsome; test: Drug metabolism in human liver microsomes assessed as (R)-2-(1-((1-(3-(2-(7-chloroquinolin-2-yl)vinyl)phenyl)-3-(4-hydroxy-2-(2-hydroxypropan-2-yl)phenyl)propylthio)methyl)cyclopropyl)acetic acid formation at 0.02 to 0.4 uM preincubated for 3 mins followed by beta-NADPH addition by LC-MS analysis; type: ADME
[4] = system: Liver microsome; test: Drug metabolism in human liver microsomes assessed as 2-(1-(((1R)-1-(3-(2-(7-chloroquinolin-2-yl)vinyl)phenyl)-3-hydroxy-3-(2-(2-hydroxypropan-2-yl)phenyl)propylthio)methyl)cyclopropyl)acetic acid formation at 0.02 to 0.4 uM preincubated for 3 mins followed by beta-NADPH addition by LC-MS analysis; type: ADME
[5] = system: Liver microsome; test: Drug metabolism in human liver microsomes assessed as 2-(1-(((1R)-1-(3-(2-(7-chloroquinolin-2-yl)vinyl)phenyl)-3-(2-(1,2-dihydroxypropan-2-yl)phenyl)propylthio)methyl)cyclopropyl)acetic acid formation at 0.02 to 0.4 uM preincubated for 3 mins followed by beta-NADPH addition by LC-MS analysis; type: ADME
[6] = system: Liver microsome; test: Drug metabolism in human liver microsomes assessed as 2-(2-((R)-3-((1-(carboxymethyl)cyclopropyl)methylthio)-3-(3-(2-(7-chloroquinolin-2-yl)vinyl)phenyl)propyl)phenyl)-2-hydroxypropanoic acid formation at 0.02 to 0.4 uM preincubated for 3 mins followed by beta-NADPH addition by LC-MS analysis; type: ADME
[7] = system: Liver microsome; test: (§1) Drug metabolism in human liver microsomes assessed as 2-(1-(((1R)-1-(3-(2-(7-chloroquinolin-2-yl)vinyl)phenyl)-3-hydroxy-3-(2-(2-hydroxypropan-2-yl)phenyl)propylthio)methyl)cyclopropyl)acetic acid formation at 0.4 uM after 15 mins by LC-MS analysis in presence of CYP3A4 inhibitor ketoconazole and troleandomycin; type: ADME; conditions: 0.25 h
[8] = Plasma protein binding in human; type: ADME, cell-free
[9] = Oral bioavailability in human at 10 mg administered through tablet; type: ADME, organism-based; conditions: in vivo
[10] = system: Liver microsome; test: Drug metabolism in human liver microsomes at 1 to 10 uM preincubated for 3 mins followed by beta-NADPH addition by LC-MS analysis; type: ADME; conditions: TDE = time-dependent effect
[11] = system: Liver microsome; test: (§2) Drug metabolism in human liver microsomes assessed as 2-(1-(((1R)-1-(3-(2-(7-chloroquinolin-2-yl)vinyl)phenyl)-3-(2-(1,2-dihydroxypropan-2-yl)phenyl)propylthio)methyl)cyclopropyl)acetic acid formation at 0.4 uM after 15 mins by LC-MS analysis in presence of CYP2C8 inhibitor gemfibrozil 1-O-beta glucuronide and trimethoprim, CYP2C9 inhibitor sulfaphenazole, and CYP2E1 inhibitor DDC; type: ADME; conditions: 0.25 h
[12] = system: Liver microsome; test: Drug metabolism in human liver microsomes assessed as (R)-2-(1-((1-(3-(2-(7-chloroquinolin-2-yl)vinyl)phenyl)-3-(4-hydroxy-2-(2-hydroxypropan-2-yl)phenyl)propylthio)methyl)cyclopropyl)acetic acid formation at 0.4 uM after 15 mins by LC-MS analysis in presence of CYP2C8 inhibitor gemfibrozil 1-O-beta glucuronide, CYP2A6 inhibitor 8-methoxy-psoralen and DDC; type: ADME; conditions: 0.25 h
[13] = system: Liver microsome; test: as §1, with “CYP1A2” for “CYP3A4”, “furafylline, CYP2B6 inhibitor clopidogrel, CYP2D6 inhibitor quinidine” for “ketoconazole”, “CYP2C9 inhibitor sulfaphenazole” for “troleandomycin”; type: ADME; conditions: 0.25 h
[14] = system: Liver microsome; test: Drug metabolism in human liver microsomes assessed as 2-(1-(((1R)-1-(3-(2-(7-chloroquinolin-2-yl)vinyl)phenyl)-3-(2-(1,2-dihydroxypropan-2-yl)phenyl)propylthio)methyl)cyclopropyl)acetic acid formation at 0.4 uM after 15 mins by LC-MS analysis in presence of CYP1A2 inhibitor furafylline, CYP2B6 inhibitor clopidogrel, CYP2D6 inhibitor quinidine and CYP2C9 inhibitor sulfaphenazole; type: ADME; conditions: 0.25 h
[15] = system: Liver microsome; test: Drug metabolism in human liver microsomes assessed as (R)-2-(1-((1-(3-(2-(7-chloroquinolin-2-yl)vinyl)phenyl)-3-(4-hydroxy-2-(2-hydroxypropan-2-yl)phenyl)propylthio)methyl)cyclopropyl)acetic acid formation at 0.4 uM after 15 mins by LC-MS analysis in presence of CYP1A2 inhibitor furafylline, CYP2B6 inhibitor clopidogrel, CYP2D6 inhibitor quinidine and CYP2C9 inhibitor sulfaphenazole; type: ADME; conditions: 0.25 h
[16] = system: Liver microsome; test: as §2, with “0.05” for “0.4”, “and” for “and trimethoprim,”, “sulfaphenazole” for “sulfaphenazole, and CYP2E1 inhibitor DDC”; type: ADME; conditions: 0.25 h
[17] = system: Liver microsome; test: Drug metabolism in human liver microsomes assessed as 2-(1-(((1R)-1-(3-(2-(7-chloroquinolin-2-yl)vinyl)phenyl)-3-hydroxy-3-(2-(2-hydroxypropan-2-yl)phenyl)propylthio)methyl)cyclopropyl)acetic acid formation at 0.1 uM after 12 mins by LC-MS analysis in presence of 2-(1-(((S)-1-(3-(2-(7-chloroquinolin-2-yl)vinyl)phenyl)-3-(2-(2-hydroxypropan-2-yl)phenyl)propylsulfinyl)methyl)cyclopropyl)acetic acid; type: ADME; conditions: 0.2 h
[18] = system: Liver microsome; test: Drug metabolism in human liver microsomes assessed as 2-(1-(((1R)-1-(3-(2-(7-chloroquinolin-2-yl)vinyl)phenyl)-3-(2-(1,2-dihydroxypropan-2-yl)phenyl)propylthio)methyl)cyclopropyl)acetic acid formation at 0.1 uM after 12 mins by LC-MS analysis in presence of 2-(1-(((S)-1-(3-(2-(7-chloroquinolin-2-yl)vinyl)phenyl)-3-(2-(2-hydroxypropan-2-yl)phenyl)propylsulfinyl)methyl)cyclopropyl)acetic acid; type: ADME; conditions: 0.2 h
[19] = system: Liver microsome; test: Drug metabolism in human liver microsomes assessed as (R)-2-(1-((1-(3-(2-(7-chloroquinolin-2-yl)vinyl)phenyl)-3-(4-hydroxy-2-(2-hydroxypropan-2-yl)phenyl)propylthio)methyl)cyclopropyl)acetic acid formation at 0.1 uM after 12 mins by LC-MS analysis in presence of 2-(1-(((S)-1-(3-(2-(7-chloroquinolin-2-yl)vinyl)phenyl)-3-(2-(2-hydroxypropan-2-yl)phenyl)propylsulfinyl)methyl)cyclopropyl)acetic acid; type: ADME; conditions: 0.2 h
[20] = biological target: T1, Cytochrome P450 3A4 (Homo sapiens, UniProt P08684); test: (§3) Activity of recombinant human CYP3A4 expressed in microsomes isolated from baculovirus infected insect cell assessed as enzyme-mediated (R)-2-(1-((1-(3-(2-(7-chloroquinolin-2-yl)vinyl)phenyl)-3-(4-hydroxy-2-(2-hydroxypropan-2-yl)phenyl)propylthio)methyl)cyclopropyl)acetic acid formation at 1 uM after 60 mins by LC-MS analysis; conditions: 1 h
T1 sequence (P08684 whole entry): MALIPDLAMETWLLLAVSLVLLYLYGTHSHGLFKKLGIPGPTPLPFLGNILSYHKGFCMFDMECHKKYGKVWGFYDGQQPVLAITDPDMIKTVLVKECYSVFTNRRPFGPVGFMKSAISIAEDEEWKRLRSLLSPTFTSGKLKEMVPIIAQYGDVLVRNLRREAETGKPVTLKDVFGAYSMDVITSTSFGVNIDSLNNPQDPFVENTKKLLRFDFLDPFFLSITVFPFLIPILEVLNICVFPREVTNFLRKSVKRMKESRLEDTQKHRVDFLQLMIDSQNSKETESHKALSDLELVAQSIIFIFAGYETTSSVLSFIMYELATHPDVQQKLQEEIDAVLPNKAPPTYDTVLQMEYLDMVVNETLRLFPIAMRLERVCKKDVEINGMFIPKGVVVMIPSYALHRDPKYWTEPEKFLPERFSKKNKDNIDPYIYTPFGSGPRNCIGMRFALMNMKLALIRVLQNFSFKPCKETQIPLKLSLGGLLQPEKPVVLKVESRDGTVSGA

[21] = biological target: Cytochrome P450 2C19 (Homo sapiens, UniProt P33261); test: as §3, with “CYP2C19” for “CYP3A4”; type: ADME; conditions: 1 h
Chain of Cytochrome P450 2C19 (P33261 whole entry): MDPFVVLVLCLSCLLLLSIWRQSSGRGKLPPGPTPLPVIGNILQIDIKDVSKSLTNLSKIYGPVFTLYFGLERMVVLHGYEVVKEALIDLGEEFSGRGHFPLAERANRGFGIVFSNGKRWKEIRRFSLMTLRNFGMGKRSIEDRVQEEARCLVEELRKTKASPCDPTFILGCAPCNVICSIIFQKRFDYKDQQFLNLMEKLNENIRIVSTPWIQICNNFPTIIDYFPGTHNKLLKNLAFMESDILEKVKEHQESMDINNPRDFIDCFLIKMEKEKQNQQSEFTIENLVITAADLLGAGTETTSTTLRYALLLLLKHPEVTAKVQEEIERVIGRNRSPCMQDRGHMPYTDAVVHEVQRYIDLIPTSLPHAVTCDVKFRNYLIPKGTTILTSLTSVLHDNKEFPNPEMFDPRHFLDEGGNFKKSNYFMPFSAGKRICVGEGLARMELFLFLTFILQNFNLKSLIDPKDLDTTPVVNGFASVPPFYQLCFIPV

[22] = biological target: T1, Cytochrome P450 3A4; test: Activity of recombinant human CYP3A4 expressed in microsomes isolated from baculovirus infected insect cell assessed as enzyme-mediated compound depletion at 0.02 uM after 30 mins by LC-MS analysis; conditions: 0.5 h
[23] = biological target: T2, Cytochrome P450 2A6 (Homo sapiens, UniProt P11509); test: Activity of recombinant human CYP2A6 expressed in microsomes isolated from baculovirus infected insect cell assessed as enzyme-mediated compound depletion at 0.02 uM after 30 mins by LC-MS analysis; type: ADME; conditions: 0.5 h
T2 sequence (P11509 whole entry): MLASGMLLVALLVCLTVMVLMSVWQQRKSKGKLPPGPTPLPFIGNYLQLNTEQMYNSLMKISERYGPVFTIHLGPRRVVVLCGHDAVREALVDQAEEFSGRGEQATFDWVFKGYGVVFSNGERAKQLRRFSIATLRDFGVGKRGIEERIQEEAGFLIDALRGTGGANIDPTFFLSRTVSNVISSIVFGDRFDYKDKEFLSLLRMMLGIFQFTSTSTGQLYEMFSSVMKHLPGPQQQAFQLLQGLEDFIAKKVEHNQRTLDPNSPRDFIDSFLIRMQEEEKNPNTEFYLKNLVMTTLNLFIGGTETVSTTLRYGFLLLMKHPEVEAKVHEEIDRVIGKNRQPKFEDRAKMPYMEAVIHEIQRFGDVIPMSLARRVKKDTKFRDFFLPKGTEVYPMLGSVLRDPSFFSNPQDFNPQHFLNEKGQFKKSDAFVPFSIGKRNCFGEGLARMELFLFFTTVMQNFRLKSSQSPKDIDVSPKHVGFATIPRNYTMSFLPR

[24] = biological target: T2, Cytochrome P450 2A6; test: Activity of recombinant human CYP2A6 expressed in microsomes isolated from baculovirus infected insect cell assessed as enzyme-mediated metabolite formation at 10 uM after 60 mins by LC-MS analysis; type: ADME; conditions: 1 h
[25] = biological target: Cytochrome P450 2C9 (Homo sapiens, UniProt P11712); test: Inhibition of recombinant human CYP2C9 expressed in microsomes isolated from baculovirus infected insect cell after 10 mins
Chain of Cytochrome P450 2C9 (P11712 whole entry): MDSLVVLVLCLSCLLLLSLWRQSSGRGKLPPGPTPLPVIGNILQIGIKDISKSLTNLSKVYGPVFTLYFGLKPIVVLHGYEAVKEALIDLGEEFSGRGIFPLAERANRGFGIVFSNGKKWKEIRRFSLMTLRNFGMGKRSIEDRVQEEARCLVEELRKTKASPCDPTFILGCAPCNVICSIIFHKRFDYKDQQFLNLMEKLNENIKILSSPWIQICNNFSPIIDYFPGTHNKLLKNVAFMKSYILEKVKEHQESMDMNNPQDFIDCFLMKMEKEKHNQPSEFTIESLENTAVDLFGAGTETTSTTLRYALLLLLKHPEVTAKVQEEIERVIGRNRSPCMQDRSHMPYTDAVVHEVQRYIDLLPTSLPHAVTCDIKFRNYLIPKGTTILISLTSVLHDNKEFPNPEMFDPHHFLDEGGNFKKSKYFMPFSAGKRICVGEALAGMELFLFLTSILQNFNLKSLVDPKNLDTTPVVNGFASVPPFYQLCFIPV

[26] = biological target: T1, Cytochrome P450 3A4; test: Activity of recombinant human CYP3A4 expressed in microsomes isolated from baculovirus infected insect cell assessed as enzyme-mediated 2-(1-(((1R)-1-(3-(2-(7-chloroquinolin-2-yl)vinyl)phenyl)-3-hydroxy-3-(2-(2-hydroxypropan-2-yl)phenyl)propylthio)methyl)cyclopropyl)acetic acid formation at 1 uM after 60 mins by LC-MS analysis; conditions: 1 h
[27] = system: Plasma; test: Fraction unbound in human plasma; type: ADME, cell-free
[28] = Cmax in human at 10 mg, po; type: ADME, organism-based; parameters: dose 10 mg, route oral; conditions: in vivo
[29] = system: Plasma; test: Unbound plasma concentration in human at 10 mg, po; type: ADME, cell-free
[30] = Plasma clearance in human at 3 to 18 mg, iv; type: ADME, organism-based

With `CC(C)(O)c1ccccc1CC[C@@H](SCC1(CC(=O)[O-])CC1)c1cccc(/C=C/c2ccc3ccc(Cl)cc3n2)c1.[Na+]` [MONTELUKAST SODIUM] as the compound, how does the Drug metabolism [1] read?
Its Drug metabolism is “metabolite_not_detected”.

What about the Drug metabolism [2] of the same compound?
Its Drug metabolism is “metabolite_detected”.

And the Drug metabolism [3]?
The Drug metabolism was “metabolite_detected”.

What about the Drug metabolism [4] of the same compound?
The Drug metabolism was “metabolite_detected”.

And the Drug metabolism [5]?
Its Drug metabolism is “metabolite_detected”.

What about the Drug metabolism [6] of the same compound?
Its Drug metabolism is “metabolite_detected”.

And the Drug metabolism [7]?
Its Drug metabolism is “metabolite_not_detected”.

What about the fraction unbound [8] of the same compound?
Its fraction unbound is < 0.01.

What about the bioavailability [9] of the same compound?
Its bioavailability is 60%.

And the Drug metabolism [10]?
The Drug metabolism was “tde”.

What about the Drug metabolism [11] of the same compound?
Its Drug metabolism is “metabolite_not_detected”.

And the Drug metabolism [12]?
Its Drug metabolism is “metabolite_not_detected”.

And the Drug metabolism [13]?
The Drug metabolism was “metabolite_detected”.

And the Drug metabolism [14]?
The Drug metabolism was “metabolite_detected”.

What about the Drug metabolism [15] of the same compound?
Its Drug metabolism is “metabolite_detected”.

And the Drug metabolism [16]?
The Drug metabolism was “metabolite_not_detected”.

And the Drug metabolism [17]?
Its Drug metabolism is “metabolite_detected”.

And the Drug metabolism [18]?
The Drug metabolism was “metabolite_not_detected”.

What about the Drug metabolism [19] of the same compound?
The Drug metabolism was “metabolite_not_detected”.

And the Drug metabolism [20]?
Its Drug metabolism is “metabolite_detected”.

What about the Drug metabolism [21] of the same compound?
The Drug metabolism was “metabolite_detected”.

And the Drug metabolism [22]?
The Drug metabolism was “metabolite_detected”.

What about the Drug metabolism [23] of the same compound?
The Drug metabolism was “metabolite_detected”.

What about the Drug metabolism [24] of the same compound?
The Drug metabolism was “metabolite_detected”.

And the Ki [25]?
Its Ki is 7.4 µM.

And the Drug metabolism [26]?
Its Drug metabolism is “metabolite_detected”.

What about the Fu [27] of the same compound?
Its Fu is 0.4%.

And the Cmax [28]?
The Cmax was 500 ng/mL.

What about the “Cp(f)” value [29] of the same compound?
The value was 3 nM.

What about the clearance [30] of the same compound?
Its clearance is 0.578 mL/min/kg.
